Measurements from patent US20250304587A1, “WEE1 INHIBITOR, PREPARATION THEREFOR AND USE THEREOF” (JIANGSU TASLY DIYI PHARMACEUTICAL CO., LTD., priority 2022, published 2025).

Legend:
plasma protein [1] = assay: Plasma protein binding (equilibrium dialysis), mouse; conditions: mouse plasma, 1 μM, 5 h dialysis
Method: Sample preparation: The compound was dissolved in DMSO to a stock solution of 10 mM, then the compound was diluted with PBS to a secondary stock solution of 0.02 mM, and then the above 0.02 mM was diluted to 1 μM using blank plasma, which was the sample to be incubated.
Dialysis set-up preparation: 400 μL of blank PBS was first added to the white wells of the equilibrated dialysis plate and 200 μL of the configured plasma sample was added to the red wells, and the dialysis plate was sealed with a sealing film.
Recovery plate preparation: Two 96-well deep-well plates, labelled T0 and T5, were prepared and all plasma samples were added at n=2. 300 μL of acetonitrile (Verapamil-HCl, 4 ng/mL) was added directly to the TO plate, followed by 50 μL of blank PBS mix well for 5 min and left to stand in a 4° C. refrigerator until the end of the incubation.
Experimental Operation: The dialysis device and the T5 plate were incubated together for 5 h in a microplate thermostatic shaker (37° C., using 300 rpm or minimum speed). At the end of the incubation, 300 μL of acetonitrile (Verapamil-HCl, 4 ng/mL) was added and 50 μL of PBS solution was added. At the end of the dialysis incubation, a new 96-well deep well plate was taken. Add 50 μL of plasma well sample to the corresponding position of the 96-well plate, 300 μL of acetonitrile and 50 μL of blank PBS; take 50 μL of buffer well sample to the corresponding position of the 96-well plate, then add 300 μL of acetonitrile and 50 μL of blank plasma. Add 300 μL of acetonitrile (Verapamil-HCl, 4 ng/mL) to the plasma-containing wells of the T5 plate, and then 50 μL of PBS solution was added. Shake for 5 min to fully precipitate the proteins and centrifuge at 20,000 g for 10 min at 4° C. Add 200 μL of supernatant to 200 μL of pure water, mix well and perform LC-MS/MS analysis.
• Plasma protein binding rate=[(Rpe−Rb)/Rpe]×100% • Recovery=[(Rpe+Rb)/R5 h]×100% • Stability=(R5/R0)×100%
• Rpe=ratio of plasma-side testing sample peak area to internal standard • Rb=ratio of buffer side testing sample peak area to internal standard • R5=ratio of incubator stability sample peak area to internal standard • R0=ratio of refrigerator stability sample peak area to internal standard

HUVEC cells = assay: Cell Titer-Glo anti-proliferation, normal cells HUVEC; format: cell-based
Method: (§1) Compound solutions of different concentration gradients were prepared. […] The cell growth group without compound was used as a positive control (maximum signal control) and the medium was used as a negative control (minimum signal control), while ensuring that the final level of DMSO in each reaction well was 0.2%. After removing the medium from the 384-well plate, 25 μl of the configured compound at different concentrations was transferred into the well plate and the compound and cells were incubated in the cell incubator at 37° C. with 5% CO2 for 3 days.
(§2) The 384-well plates were removed from the cell incubator and allowed to equilibrate for 1 h to room temperature. 25 μl of Cell Titer-Glo assay was added to each well, lysed on a shaker for 2 min and then read out (Luminescence) using a BMG PHERAStar after 10 min incubation. Calculate the inhibition rate from the luminescence signal.
(§3) to calculate the rate of inhibition of the cells by different concentrations of the compounds. The IC50 of the compound on cell activity inhibition was calculated by fitting a log(inhibitor) vs. response-Variable slope model to GraphPad Prism 6. The fitted equation was: Y=Bottom+(Top-Bottom)/(1+10^((Log IC50−X)*HillSlope)), where Y represents the rate of inhibition and X represents the concentration of the known compound after Log.
(§4) B. Evaluation of the Anti-Proliferative Effect of Compounds by the Cell Titer-Glo Method on Normal Cells HUVEC and HK2.
(§5) The test method is the same as the anti-proliferative activity evaluation of tumor cells.

HT-29 cells = assay: Cell Titer-Glo anti-proliferation, HT-29 cells; format: cell-based, human; conditions: 3 days, read-out: Anti-proliferative activity HT-29 (IC50 class)
How it was run: (§6)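 Each line was exposed to graded compound concentrations for 3 days at 37 °C, 5% CO2, with final DMSO at 0.2%. Viability was measured by Cell Titer-Glo luminescence, with untreated cells as the maximum and medium as the minimum signal. IC50 came from a variable-slope log(inhibitor)-response fit.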

BxPC3 cells = assay: Cell Titer-Glo anti-proliferation, BxPC3 cells; format: cell-based, human; conditions: 3 days, read-out: Anti-proliferative activity BxPC3 (IC50 class)
How it was run: as §6

OVCAR-3 cells = assay: Cell Titer-Glo anti-proliferation, OVCAR-3 cells; format: cell-based; conditions: 3 days, read-out: Anti-proliferative activity OVCAR-3 (IC50 class)
How it was run: as §6

HK2 cells = assay: Cell Titer-Glo anti-proliferation, normal cells HK2; format: cell-based
Method: as §1, §2, §3, §4, §5

Caco-2 cells = assay: Membrane permeability in Caco-2 model; format: in vitro ADME; conditions: for Efflux Ration: Caco2; for Papp A to B / Papp B to A: Caco2, 10 μM, 90 min
Method: (§7) Caco-2 cells were purchased from the American Model Tissue Cell Collection (Rockville, MD). The cell culture medium was modified Eagle's medium (MEM) containing 10% inactivated fetal bovine serum and 1% non-essential amino acids. […] The cells were incubated for 21-28 days after inoculation for transport experiments and the apparent permeability (Papp) of Lucifer Yellow was used to characterize and verify the compactness of the cell monolayer. […] After the incubation, dilute the samples on the apical side and basolateral side, and the concentrations of compounds on the apical and basolateral sides were detected by LC-MS/MS, and the concentrations of the compounds were quantified by standard curve.

[2] = Metabolic stability in liver microsomes, monkey; format: in vitro ADME
Method: (§8) Microsomes were taken out from the −80° C. refrigerator, rapidly melted in a 37° C. water bath and placed on ice until ready to use. The test article was diluted with DMSO to prepare a 10 mM stock solution, and then diluted with acetonitrile to a 0.5 mM secondary stock solution. […] NADPH was diluted with Buffer C to a working solution of 6 mM for the starter solution. An acetonitrile solution containing an internal standard was prepared as the precipitant, and Verapamil-HCl was chosen as the internal standard at a concentration of 4 ng/ml. […] A separate plate with pointed bottom wells, noted as a precipitation plate, was added with 135 μL precipitant per well; 0 h samples were transferred to the plate after 10 min incubation and 15 μL of starter solution was added; the plate was placed on ice before centrifugation. The diluted starter solution was added in sufficient quantity to the dispensing plate to facilitate the multichannel pipette aspiration operation. The reaction was carried out on a warm incubation shaker and 15 μL of starter solution/sample is added to the plate using a multichannel pipette. The reaction was mixed with a slight shake to initiate the reaction, which was accurately timed and recorded using a timer; After the reaction time had elapsed, all the solution in the plate was aspirated using the multichannel pipette and added to the precipitation plate to terminate the reaction at that point in time. After all reactions had been terminated, the plates were shaken for ten minutes on a plate shaker at 600 rpm to precipitate the protein. The plate was centrifuged at 4° C. for 15 minutes at maximum rpm. 80 μL of supernatant was taken, 320 μL of pure water was added and mixed for LC-MS analysis.

hERG potassium channel = hERG potassium channel (Homo sapiens (Human), UniProt Q12809); assay: hERG potassium channel inhibition, patch clamp in CHO hERG cells
Sequence of hERG potassium channel (Q12809 whole entry): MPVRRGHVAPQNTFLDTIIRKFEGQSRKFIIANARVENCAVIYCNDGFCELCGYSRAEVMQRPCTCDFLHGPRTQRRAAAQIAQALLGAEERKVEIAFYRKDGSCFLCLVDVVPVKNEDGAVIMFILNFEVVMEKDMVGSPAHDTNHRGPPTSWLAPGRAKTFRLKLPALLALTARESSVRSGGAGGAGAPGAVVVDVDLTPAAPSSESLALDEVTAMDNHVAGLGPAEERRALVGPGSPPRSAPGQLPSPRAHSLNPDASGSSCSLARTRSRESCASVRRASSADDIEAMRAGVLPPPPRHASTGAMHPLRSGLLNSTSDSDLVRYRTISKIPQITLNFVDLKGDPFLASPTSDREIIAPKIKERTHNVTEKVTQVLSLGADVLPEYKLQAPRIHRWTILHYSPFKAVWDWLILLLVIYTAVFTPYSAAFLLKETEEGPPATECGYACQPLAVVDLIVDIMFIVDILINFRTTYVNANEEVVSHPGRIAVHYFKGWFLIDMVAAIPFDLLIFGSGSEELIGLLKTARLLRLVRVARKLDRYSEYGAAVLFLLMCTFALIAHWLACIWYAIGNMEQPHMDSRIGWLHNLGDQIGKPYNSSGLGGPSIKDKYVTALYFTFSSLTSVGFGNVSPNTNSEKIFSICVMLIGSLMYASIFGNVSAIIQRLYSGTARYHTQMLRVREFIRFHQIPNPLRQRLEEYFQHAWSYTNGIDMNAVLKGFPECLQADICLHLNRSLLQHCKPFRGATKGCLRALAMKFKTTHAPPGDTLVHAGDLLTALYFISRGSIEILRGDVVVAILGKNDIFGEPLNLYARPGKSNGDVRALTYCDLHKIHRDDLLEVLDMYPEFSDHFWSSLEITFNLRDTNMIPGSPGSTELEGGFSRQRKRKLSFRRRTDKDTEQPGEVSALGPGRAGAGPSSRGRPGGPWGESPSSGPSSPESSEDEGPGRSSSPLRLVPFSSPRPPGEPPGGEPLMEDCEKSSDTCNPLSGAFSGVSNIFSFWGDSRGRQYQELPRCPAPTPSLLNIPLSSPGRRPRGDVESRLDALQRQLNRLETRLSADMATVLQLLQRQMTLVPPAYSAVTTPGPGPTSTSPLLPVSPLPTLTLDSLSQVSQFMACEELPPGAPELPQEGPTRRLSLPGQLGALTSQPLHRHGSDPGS
Method: The cell line used for the patch clamp assay was a 10th generation CHO cell overexpressing hERG potassium channel cDNA. CHO hERG cells were cultured in Petri dishes or flasks at 37° C. in a 5% CO2 incubator. Cells were dropped onto circular slides 24-48 hours prior to electrophysiological experiments and cultured in cell culture medium and used for experiments after the cells had been adhered.
Cell culture medium (purchased from Invitrogen) Composition: • Ham's F12 medium • 10% (v/v) heat inactivated FBS • 100 μg/ml Hygromycin B (thaumatin) • 100 μg/ml Geneticin (Genomycin, G418)
Compound powders are dissolved in the extracellular solution and are subjected to a routine 5 to 10 minute sonication and shaking to ensure complete dissolution of the compound.
The final concentrations of compounds used for electrophysiological assays were 5, 20 μM and the final concentration of DMSO was 0.1%.
Cell membrane currents were recorded using a HEKA EPC-10 USB patch-clamp amplifier (HEKA Elektronik, Germany). • 1) A coverslip with a large number of uniformly growing individual CHO hERG cells on its surface was taken. Place in a continuous recording cell on an inverted microscope, perfused with extracellular fluid (approximately 1 ml per minute) and recorded continuously, waiting for the current to stabilize. • 2) Record HERG channel currents for individual cells using standard whole cell recording mode. The membrane voltage is first clamped at −80 mV and the cell is given a +20 mV stimulus for 5 s to activate the hERG potassium channel, then repolarized to −50 mV for 5 s to generate an outward tail current, which is continuously perfused until the current is stable, at which point the peak tail current is the control current value. • 3) The extracellular solution containing the drug to be tested was then perfused and recorded until the inhibitory effect of the drug on the hERG current reached a steady state, at which point the peak tail current was the post-drug current value. • 4) The cells are again perfused with the extracellular solution until the hERG current returns to or approaches the level prior to the addition of the drug, then the perfusion can be continued to test other concentrations or drugs. One or more compound or drug concentrations may be tested on each cell. • 5) Cisapride (C4740-10 mg, Sigma) is used as a positive control in the experiment to ensure that the cells used respond properly.

Wee1 protein = Wee1 protein (Homo sapiens (Human), UniProt P30291); assay: TR-FRET binding of compound to Wee1 protein and Tracer 178; conditions: Tracer 178, read-out: IC50, inhibitory activity against Wee1 kinase
Sequence of Wee1 protein (P30291 whole entry): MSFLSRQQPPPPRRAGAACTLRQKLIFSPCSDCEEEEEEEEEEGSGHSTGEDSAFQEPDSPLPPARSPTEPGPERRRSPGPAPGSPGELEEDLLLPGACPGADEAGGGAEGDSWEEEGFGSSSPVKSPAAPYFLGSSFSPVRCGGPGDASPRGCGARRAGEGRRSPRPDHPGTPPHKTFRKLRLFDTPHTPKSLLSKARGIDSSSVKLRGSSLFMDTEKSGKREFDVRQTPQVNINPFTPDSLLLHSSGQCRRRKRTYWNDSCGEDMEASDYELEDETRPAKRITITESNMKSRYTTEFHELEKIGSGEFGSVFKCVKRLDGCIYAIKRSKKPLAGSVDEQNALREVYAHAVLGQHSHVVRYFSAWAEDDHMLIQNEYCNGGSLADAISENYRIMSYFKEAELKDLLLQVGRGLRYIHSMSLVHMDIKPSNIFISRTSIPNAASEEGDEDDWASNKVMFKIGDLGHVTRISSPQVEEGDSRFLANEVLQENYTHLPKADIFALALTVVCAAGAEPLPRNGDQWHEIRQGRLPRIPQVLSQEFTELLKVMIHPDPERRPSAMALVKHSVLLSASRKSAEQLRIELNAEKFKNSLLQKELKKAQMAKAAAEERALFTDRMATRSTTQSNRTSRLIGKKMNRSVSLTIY
Method: First, solutions of the compounds in different concentration gradients were prepared. The compounds were dissolved in DMSO and the compounds were diluted 4 folds with a total of 10 dose points and 2 parallel replicates for each concentration.
The IC50 for inhibition of enzyme activity by the compounds was then calculated using GraphPad Prism 6 and fitted with a log (inhibitor) vs. response-Variable slope mode. The fitting equation was: Y=Bottom+(Top−Bottom)/(1+10^((Log IC50−X)*HillSlope)), where Y represents the percentage of residual enzyme activity known and X represents the known concentration of compound after the logarithm.

[3] = Metabolic stability in liver microsomes, dog; format: in vitro ADME
Method: as §8

[4] = Metabolic stability in liver microsomes, human; format: in vitro ADME
Method: as §8, with “Test Example 3: Evaluation of the Metabolic Stability of Liver Microsomes (Mouse and Human) In Vitro Microsomes” for “Microsomes”

plasma protein [5] = assay: Plasma protein binding (equilibrium dialysis), rat; format: in vitro ADME; conditions: 1 μM, 5 h dialysis
[6] = Metabolic stability in liver microsomes, mouse; format: in vitro ADME
Method: as §8, with “Test Example 3: Evaluation of the Metabolic Stability of Liver Microsomes (Mouse and Human) In Vitro Microsomes” for “Microsomes”

[7] = Metabolic stability in liver microsomes, rat; format: in vitro ADME
Method: as §8

[8] = Membrane permeability in Caco-2 model; format: in vitro ADME; conditions: human, Caco-2, pH 7.4
Method: as §7

Plasma Protein binding (PPB) Mouse (plasma protein [1]) [%] | IC50 (HT-29 cells) [nM] | IC50 (BxPC3 cells) [nM] | IC50 (OVCAR-3 cells) [nM] | T1/2 liver microsomes Monkey [2] [min] | IC50 (Wee1 protein) [nM] | T1/2 liver microsomes Dog [3] [min] | T1/2 liver microsomes Human [4] [min] | Plasma Protein binding (PPB) Rat (plasma protein [5]) [%] | T1/2 liver microsomes Mouse [6] [min] | T1/2 liver microsomes Rat [7] [min] | SMILES | IC50 (HUVEC cells) [nM] | IC50 (HK2 cells) [nM] | further results
 | 100 to 1000 | 100 to 1000 | 100 to 1000 | 14.22 |  | 22.8 | 26.24 |  | 96.19 | 31.42 | C=CCn1c(=O)c2cnc(Nc3ccc(N4CCC(N(C)C)CC4)c(C)c3)nc2n1-c1ccc2c(n1)[C@@](C)(O)C1(CC2)CC1 (single isomer, unassigned) [Compound 52a] | 3830 | 480 | 
98.46 |  |  |  |  |  |  |  | 93.61 |  |  | [2H][C@]1(O)c2nc(-n3c4nc(Nc5ccc(N6CCC7(CCN(C)CC7)CC6)c(C)c5)ncc4c(=O)n3CC=C)ccc2CCC12CC2 [Compound 61b] |  |  | 

The next lines start with the compound.

SMILES | Plasma Protein binding (PPB) Mouse (plasma protein [1]) [%] | IC50 (HT-29 cells) [nM] | IC50 (BxPC3 cells) [nM] | IC50 (OVCAR-3 cells) [nM] | T1/2 liver microsomes Monkey [2] [min] | IC50 (Wee1 protein) [nM] | T1/2 liver microsomes Dog [3] [min] | T1/2 liver microsomes Human [4] [min] | Plasma Protein binding (PPB) Rat (plasma protein [5]) [%] | T1/2 liver microsomes Mouse [6] [min] | T1/2 liver microsomes Rat [7] [min] | IC50 (HUVEC cells) [nM] | IC50 (HK2 cells) [nM] | further results
C=CCn1c(=O)c2cnc(Nc3ccc(N4CCC(N(C)C)CC4)c(C)c3)nc2n1-c1ccc2c(n1)C(C)(O)C1(CC1)C2 (racemic) [Compound 15] | 93.51 | 100 to 1000 | 100 to 1000 | 100 to 1000 |  |  |  |  |  |  |  | > 10000 | 760 | 
C=CCn1c(=O)c2cnc(Nc3ccc(N4CCN(C)CC4)cc3)nc2n1-c1ccc2c(n1)[C@H](O)C1(CC2)CC1 (single isomer, unassigned) [Compound 4b] | 87.71 | 100 to 1000 | 100 to 1000 | 100 to 1000 | 22.84 | ≤ 5 | 41.74 | 44.82 | 77.45 | 72.82 | >120 | > 10000 | 1290 | Efflux Ration (Caco-2 cells): 14.03; Papp A to B (Caco-2 cells): 0.94 10^−6 cm/s; Papp B to A (Caco-2 cells): 13.19 10^−6 cm/s; hERG Inhibition (hERG potassium channel; test concentration 5 μM): 23.84 ± 4.39%; hERG Inhibition (hERG potassium channel; test concentration 20 μM): 42.42 ± 5.58%
C=CCn1c(=O)c2cnc(Nc3ccc(N4CCC5(CCN(C)CC5)CC4)cc3)nc2n1-c1ccc2c(n1)C(C)(O)C1(CC1)C2 (centres unmarked) [Compound 11] | 92.17 | 100 to 1000 | 100 to 1000 | 100 to 1000 |  |  |  |  |  |  |  | > 10000 | 1460 | Efflux Ration (Caco-2 cells): 21.59; Papp A to B (Caco-2 cells): 0.41 10^−6 cm/s; Papp B to A (Caco-2 cells): 8.85 10^−6 cm/s
C=CCn1c(=O)c2cnc(Nc3ccc(N4C[C@H]5CN(C)C[C@H]5C4)cc3)nc2n1-c1ccc2c(n1)C(O)(CC)C1(CC1)C2 (some centres unmarked) [Compound 28] | 92.29 | 100 to 1000 | 100 to 1000 | 100 to 1000 | 17.74 | ≤ 5 | 38.2 | 29.95 | 86.08 | 51.65 | 30.9 | > 10000 | 1190 | 
C=CCn1c(=O)c2cnc(Nc3ccc(N4CCN(C)CC4)cc3)nc2n1-c1ccc2c(n1)C(O)(C(F)(F)F)C1(CC1)C2 (centres unmarked) [Compound 32] | 96.87 | 100 to 1000 | 1000 to 2000 | 1000 to 2000 |  | 5 to 10 |  |  |  |  |  | > 10000 | 1140 | 
CC(C)NCC(O)COc1cccc2ccccc12 (centres unmarked) [Propranolol] |  |  |  |  |  |  |  |  |  |  |  |  |  | Papp A→B at 90 min, 10 µM ([8]; Caco2, 10 μM, 90 min): 14.7 ×10⁻⁶ cm/s; Papp B→A at 90 min, 10 µM ([8]; Caco2, 10 μM, 90 min): 13 ×10⁻⁶ cm/s; efflux ratio at 90 min, 10 µM ([8]; Caco2, read-out: Efflux Ration): 0.88
